Measurements from article PMC7374640 (Nature structural & molecular biology, 2020).

Tests used:
[1] = biological target: human insulin receptor, isoform B (hIR, IR-B) (human) (UniProt P06213)
[2] = cited from earlier work
[3] = test system: insulin receptor; details: cited from earlier work

Substance	receptor affinity relative to native insulin (fold lower) [3]	other results
DOI with TyrB20 substitution (peptide)		bioactivity (insulin receptor activation assay), fold increase against DOI [1]: 5 fold
HisA8 human insulin: human insulin with ThrA8 substituted by histidine (literature)		increase in potency on substitution of human insulin ThrA8 by histidine [2]: three-fold
des-heptapeptide(B24-B30)-[GlyB23-α-carboxamide]insulin	~ 500 fold	
des-hexapeptide(B25-B30)-[PheB24-α-carboxamide]insulin	~ 20 fold	
des-pentapeptide(B26-B30)-[PheB25-α-carboxamide]insulin	native-like	
